According to US20250057790A1, “AN INJECTABLE PHARMACEUTICAL COMPOSITION FOR THE TREATMENT OF RESPIRATORY DISEASES IN ANIMALS” (priority 2021, published 2025):
Converted amounts (≈) assume the structure as drawn.

Tests used:
[1] = Pharmacokinetic analysis in blood plasma of cattle after single SC administration; format: in vivo; conditions: for concentration at 0.25 h / concentration at 0.5 h / concentration at 1 h / concentration at 2 h / concentration at 4 h / concentration at 7 h / concentration at 10 h / concentration at 24 h / concentration at 32 h / concentration at 48 h / concentration at 72 h: bovine, plasma, sc, 10 mg/kg, cattle; for concentration at 0.25 h: 0.25 h after administration; for concentration at 0.5 h: 0.5 h after administration; for concentration at 1 h: 1 h after administration; for concentration at 2 h: 2 h after administration; for concentration at 4 h: 4 h after administration; for concentration at 7 h: 7 h after administration; for concentration at 10 h: 10 h after administration; for concentration at 24 h: 24 h after administration; for concentration at 32 h: 32 h after administration; for concentration at 48 h: 48 h after administration; for concentration at 72 h: 72 h after administration
Description: This study determined the bioavailability, the pharmacokinetic profile of Compound A formulations for subcutaneous (SC) injection in the blood plasma of cattle after a single subcutaneous (SC) administration of 10 mg/kg body weight. Concentrations in the blood plasma and bronchial epithelial lining fluid concentrations were determined. Additional tissues were collected post mortem for compound concentration determination.
Compound A was formulated as described in Examples 1 and 2 above. The aqueous solution formulation was Compound A 15% w/v, 15 w/v Kollisolv P124, 6% w/v benzyl alcohol, 7% w/v citric acid, and QS Water, pH 5.2. The oily suspension formulation was Compound A 17.5% w/v, suspended with 0.1% Kolliphor HS, and QS Miglyol812.
Samples were collected into K-EDTA coated Monovettes®. The samples were collected from the Vena jugularis externa. Preferred was the left side of the body, on the opposite side of administration.
The tubes were gently shaken to ensure proper mixing of blood with the anti-coagulant and placed in ice water until centrifugation. K-EDTA-Blood samples were centrifuged at approximately 4° C. and a relative centrifugal force of 2000 for 10 min. Within 2 hours after collection, two aliquots (1, 2) of approximately 0.5 mL blood plasma were pipetted off each sample into labeled plastic (polypropylene) freezer vials.
Pharmacokinetic (PK) parameters (Table 10-2) were calculated using the Phoenix WinNonlin 8.1 software. PK parameters (at least: Cmax, Tmax, AUClast, HL_Lambda_Z, VZ_F, MRTlast, CL_F and F %) to describe the PK profile after SC compound administration.

[2] = test system: P. multocida (bovine origin); test: MIC determination, broth-microdilution (CLSI VET01-A4), field isolates; format: cell-based, Pasteurella multocida
Description: (§1) This study determined the in vitro activity Compound (A), the enantiomer of the compound of Formula (I), against different isolates of Actinobacillus (A.) pleuropneumoniae, Bordetella (B.) bronchiseptica, Mannheimia (M.) haemolytica, Pasteurella (P.) multocida, Histophilus (H.) somni and Glaesserella parasuis collected in different European countries.
(§2) The in vitro activity was determined by measuring the minimum inhibitory concentrations (MIC) according to CLSI document VET01-A4 [1] and by calculating MIC50 and MIC90.
(§3) A total of 193 field isolates were tested: 31 of A. pleuropneumoniae, 20 of B. bronchiseptica, 20 of H. somni, 20 H. parasuis, 55 of M. haemolytica and 47 of P. multocida. All bacteria were isolated from the respiratory tract of cattle and swine suffering from respiratory disease. All isolates were epidemiologically unrelated as specified by the different suppliers. E. coli ATCC 25922 (ID 6105) and M. haemolytica ATCC 33396 (ID 6374) were used as reference strains for testing isolates of B. bronchiseptica, M. haemolytica and P. multocida. A. pleuropneumoniae ATCC 27090 (ID 6314) and H. somni ATCC 700025 (ID 6315) were used as reference strains for the testing isolates of A. pleuropneumoniae, H. somni and Glaesserella parasuis. Additionally, H. parasuis (G. parasuis) ATCC 19417 was included as type strain for growth control.
(§4) • Mueller-Hinton agar (Becton Dickinson, Lot 9224866) • Cation-adjusted Mueller-Hinton broth, (CAVHB, Becton Dickinson, Lot 8190586) • Sheep blood, defibrinated (Thermo Scientific, Lot 37091500) • Chocolate agar, GC II with IsoVitalex™ (Becton Dickinson, Lot 0147695) • GC-agar base (Becton Dickinson, Lot 6082608) • Hemoglobin solution (Becton Dickinson, Lot 7142854) • Vitox (Oxoid, Lot 2344976) • Veterinary fastidious Medium (VFM), prepared according to CLSI document VET01-A4 [1], containing: • CAMHB (Becton Dickinson, Lot 8190586) • Yeast extract (Sigma, Lot BCBS5470V) • Lysed horse blood (Thermo Scientific, Lot 35875000) • Supplement C™ (Becton Dickinson, Lot 8030960) • Deionized water
(§5) The MICs for all isolates except for H. somni and Glaesserella parasuis isolates, were determined by using the broth-microdilution method according to CLSI document VET01-A4 [1]. For isolates of H. somni and Glaesserella parasuis the agar-dilution method with chocolate agar GC II, was used. The test concentration range for all compounds was 16 μg/mL to 0.016 μg/mL.
(§6) The MIC results were interpreted according to the CLSI document VET01-S3 [2]. […] All wells containing test item were compared with the growth-control wells. The lowest concentration of compound at which no visible growth (i.e. no turbidity) was detected by the unaided eye was recorded as the MIC. If a “trailing endpoint” occurs, the MIC is defined as the first concentration at which a markedly reduction (about 90%) of the inoculum is observed.
(§7) For isolates tested by the agar-dilution method, results were interpreted according to the CLSI document VET01-S3 [2]. […] The MIC50 and MIC90 represent the concentrations at which a minimum of 50% or 90% of the isolates tested are inhibited.

[3] = test system: P. multocida (porcine origin); test: as above; format: cell-based, Pasteurella multocida
Description: as §1, §2, §3, §4, §5, §6, §7

[4] = Lung tissue study in cattle; format: in vivo; conditions: after slaughter
Description: The same animals and compositions of Compound A that were used in Example 5 were also used for the Lung tissue study. The lung was freed from the trachea and appending tissues. One half of the lung was homogenized using a food processor (Robot Coupe). Two aliquots of approximately 1 g were placed into 15 mL Falcon tubes. From the liver, kidney and a skeletal muscle (long back muscle) scissor snips from at least two locations were collected to a total mass of ca. 1 g each and placed into 15 mL Falcon tubes. Tissue samples were diluted with blank EDTA cattle plasma 1+3 (w/v) and samples were homogenized using a FastPrep™ System. After centrifugation aliquots of the supernatants were used to determine compound concentrations by a HPLC-MS/MS procedure.

[5] = both aqueous solution group and oily suspension group, SC 10 mg/kg
[6] = SC 10 mg/kg 15% aqueous solution
[7] = SC 10 mg/kg 17.5% oily suspension
[8] = Pasteurella multocida, 25 isolates of bovine origin, broth microdilution
[9] = of 25 isolates tested, bovine origin
[10] = Pasteurella multocida, 22 isolates of porcine origin, broth microdilution
[11] = of 22 isolates tested, porcine origin

COCCNCc1ccc(C#Cc2ccc(C(=O)N[C@H](C(=O)NO)C(C)(C)N)cc2)cc1 [Compound A]
Compound persistence in cattle [1, 5]: around 11 h
Period of constant plasma plateau levels after treatment [1, 5]: 4 to 10 h
Time for which compound was detected in bovine plasma, on average [1, 5]: 72 h
concentration at 0.25 h [1, 6]: 1440 ng/mL
concentration at 0.5 h [1, 6]: 1630 ng/mL
concentration at 1 h [1, 6]: 1260 ng/mL
concentration at 2 h [1, 6]: 567 ng/mL
concentration at 4 h [1, 6]: 363 ng/mL
concentration at 7 h [1, 6]: 395 ng/mL
concentration at 10 h [1, 6]: 320 ng/mL
concentration at 24 h [1, 6]: 47 ng/mL
concentration at 32 h [1, 6]: 22 ng/mL
concentration at 48 h [1, 6]: 11.5 ng/mL
concentration at 72 h [1, 6]: 6.55 ng/mL
concentration at 0.25 h [1, 7]: 1220 ng/mL
concentration at 0.5 h [1, 7]: 1090 ng/mL
concentration at 1 h [1, 7]: 571 ng/mL
concentration at 2 h [1, 7]: 413 ng/mL
concentration at 4 h [1, 7]: 356 ng/mL
concentration at 7 h [1, 7]: 433 ng/mL
concentration at 10 h [1, 7]: 319 ng/mL
concentration at 24 h [1, 7]: 56.5 ng/mL
concentration at 32 h [1, 7]: 30.8 ng/mL
concentration at 48 h [1, 7]: 13.2 ng/mL
concentration at 72 h [1, 7]: 7.28 ng/mL
MIC50 [2, 8]: 0.032 µg/mL (≈ 0.073 µM)
MIC90 [2, 8]: 0.063 µg/mL (≈ 0.144 µM)
Distribution of MICs: number of isolates with MIC 0.032 μg/mL [2, 9]: 12
Distribution of MICs: number of isolates with MIC 0.063 μg/mL [2, 9]: 6
Distribution of MICs: number of isolates with MIC 0.125 μg/mL [2, 9]: 1
Distribution of MICs: number of isolates with MIC ≤0.016 μg/mL [2, 9]: 6
MIC50 [3, 10]: 0.032 µg/mL (≈ 0.073 µM)
MIC90 [3, 10]: 0.063 µg/mL (≈ 0.144 µM)
Distribution of MICs: number of isolates with MIC 0.032 μg/mL [3, 11]: 12
Distribution of MICs: number of isolates with MIC 0.063 μg/mL [3, 11]: 6
Distribution of MICs: number of isolates with MIC 0.125 μg/mL [3, 11]: 1
Distribution of MICs: number of isolates with MIC ≤0.016 μg/mL [3, 11]: 3
Detection in tissue samples from lungs [4]: substantial amounts
